Results on four molecules are retold here after PubChem BioAssay AID1259407 (Chemical Carcinogenesis Research Information System (CCRIS), 2018).

This series concerns CCRIS mutagenicity, Ames/micronucleus/aberration tests. Put plainly: CCRIS mutagenicity studies.
Where [1] appears, read: Test System: AMES SALMONELLA TYPHIMURIUM, Strain/Indicator: TA98, Metabolic Activation: NONE, Method: PREINCUBATION
Setting [2] is: Test System: AMES SALMONELLA TYPHIMURIUM, Strain/Indicator: TA100, Metabolic Activation: NONE, Method: PREINCUBATION
Setting [3] is: Test System: AMES SALMONELLA TYPHIMURIUM, Strain/Indicator: TA104, Metabolic Activation: NONE, Method: PREINCUBATION

Active and inactive are the calls of the source. How the calls were made is not given here.

As to `C=C(C)CCl`, the mutagenic call (End Point: IN VITRO CHROMOSOMAL ABERRATIONS, Test System: CHL CELLS, Metabolic Activation: RAT, LIVER, S-9, SODIUM PHENOBARBITAL AND 5,6-BENZOFLAVONE) was “active; positive (structural changes)”; the mutagenic call (Test System: AMES SALMONELLA TYPHIMURIUM, Strain/Indicator: TA97, Metabolic Activation: HAMSTER, LIVER, S-9, AROCLOR 1254 (10 OR 30%), Method: PREINCUBATION) was “inactive; negative”; the mutagenic call (Test System: AMES SALMONELLA TYPHIMURIUM, Strain/Indicator: TA97, Metabolic Activation: NONE, Method: PREINCUBATION) was “inactive; negative”; the mutagenic call (Test System: AMES SALMONELLA TYPHIMURIUM, Strain/Indicator: TA97, Metabolic Activation: RAT, LIVER, S-9, AROCLOR 1254 (10 OR 30%), Method: PREINCUBATION) was “inactive; negative”; the mutagenic call (Test System: AMES SALMONELLA TYPHIMURIUM, Strain/Indicator: TA98, Metabolic Activation: HAMSTER, LIVER, S-9, AROCLOR 1254 (10 OR 30%), Method: PREINCUBATION) is “inactive; negative”; the mutagenic call under setting [1] was “inactive; negative”. For the same molecule, the mutagenic call was “inactive; negative” (Test System: AMES SALMONELLA TYPHIMURIUM, Strain/Indicator: TA98, Metabolic Activation: RAT LIVER S-9, PHENOBARBITAL AND BETA-NAPHTHOFLAVONE, Method: PREINCUBATION); “inactive; negative” (Test System: AMES SALMONELLA TYPHIMURIUM, Strain/Indicator: TA98, Metabolic Activation: RAT, LIVER, S-9, AROCLOR 1254 (10 OR 30%), Method: PREINCUBATION); “inactive; negative” (Test System: AMES SALMONELLA TYPHIMURIUM, Strain/Indicator: TA100, Metabolic Activation: HAMSTER, LIVER, S-9, AROCLOR 1254 (10 OR 30%), Method: PREINCUBATION); “active; positive” (Test System: AMES SALMONELLA TYPHIMURIUM, Strain/Indicator: TA100, Metabolic Activation: NONE, Method: LIQUID SUSPENSION); “inactive; negative” under setting [2]; “inactive; negative” (Test System: AMES SALMONELLA TYPHIMURIUM, Strain/Indicator: TA100, Metabolic Activation: RAT LIVER S-9, PHENOBARBITAL AND BETA-NAPHTHOFLAVONE, Method: PREINCUBATION). Besides, the mutagenic call (Test System: AMES SALMONELLA TYPHIMURIUM, Strain/Indicator: TA100, Metabolic Activation: RAT, LIVER, S-9, AROCLOR 1254 (10 OR 30%), Method: PREINCUBATION) was “inactive; negative”; the mutagenic call (Test System: AMES SALMONELLA TYPHIMURIUM, Strain/Indicator: TA100, Metabolic Activation: RAT, LIVER, S-9, Method: LIQUID SUSPENSION) is “active; positive”; the mutagenic call (Test System: AMES SALMONELLA TYPHIMURIUM, Strain/Indicator: TA102, Metabolic Activation: NONE, Method: PREINCUBATION) is “inactive; negative”; the mutagenic call (Test System: AMES SALMONELLA TYPHIMURIUM, Strain/Indicator: TA102, Metabolic Activation: RAT LIVER S-9, PHENOBARBITAL AND BETA-NAPHTHOFLAVONE, Method: PREINCUBATION) is “inactive; negative”; the mutagenic call (Test System: AMES SALMONELLA TYPHIMURIUM, Strain/Indicator: TA102, Metabolic Activation: RAT, LIVER, S-9, PHENOBARBITAL AND 5,6-BENZOFLAVONE, Method: STANDARD PLATE) was “inactive; negative”; the mutagenic call under setting [3] was “inactive; negative”. Moreover, the mutagenic call (Test System: AMES SALMONELLA TYPHIMURIUM, Strain/Indicator: TA104, Metabolic Activation: RAT LIVER S-9, PHENOBARBITAL AND BETA-NAPHTHOFLAVONE, Method: PREINCUBATION) is “inactive; negative”; the mutagenic call (Test System: AMES SALMONELLA TYPHIMURIUM, Strain/Indicator: TA1535, Metabolic Activation: HAMSTER, LIVER, S-9, AROCLOR 1254 (10 OR 30%), Method: PREINCUBATION) was “inactive; negative”; the mutagenic call (Test System: AMES SALMONELLA TYPHIMURIUM, Strain/Indicator: TA1535, Metabolic Activation: NONE, Method: PREINCUBATION) is “inactive; negative”; the mutagenic call (Test System: AMES SALMONELLA TYPHIMURIUM, Strain/Indicator: TA1535, Metabolic Activation: RAT LIVER S-9, PHENOBARBITAL AND BETA-NAPHTHOFLAVONE, Method: PREINCUBATION) is “inactive; negative”; the mutagenic call (Test System: AMES SALMONELLA TYPHIMURIUM, Strain/Indicator: TA1535, Metabolic Activation: RAT, LIVER, S-9, AROCLOR 1254 (10 OR 30%), Method: PREINCUBATION) was “inactive; negative”; the mutagenic call (Test System: AMES SALMONELLA TYPHIMURIUM, Strain/Indicator: TA1537, Metabolic Activation: HAMSTER, LIVER, S-9, AROCLOR 1254 (10 OR 30%), Method: PREINCUBATION) is “inactive; negative”. The mutagenic call reads like this: (Test System: AMES SALMONELLA TYPHIMURIUM, Strain/Indicator: TA1537, Metabolic Activation: NONE, Method: PREINCUBATION) “inactive; negative”; (Test System: AMES SALMONELLA TYPHIMURIUM, Strain/Indicator: TA1537, Metabolic Activation: RAT LIVER S-9, PHENOBARBITAL AND BETA-NAPHTHOFLAVONE, Method: PREINCUBATION) “inactive; negative”; (Test System: AMES SALMONELLA TYPHIMURIUM, Strain/Indicator: TA1537, Metabolic Activation: RAT, LIVER, S-9, AROCLOR 1254 (10 OR 30%), Method: PREINCUBATION) “inactive; negative”; (Test System: AMES SALMONELLA TYPHIMURIUM, Strain/Indicator: TA2638, Metabolic Activation: RAT, LIVER, S-9, PHENOBARBITAL AND 5,6-BENZOFLAVONE, Method: STANDARD PLATE) “inactive; negative”; (Test System: E. COLI, Strain/Indicator: WP2 (PKM101), Metabolic Activation: RAT, LIVER, S-9, PHENOBARBITAL AND 5,6-BENZOFLAVONE, Method: STANDARD PLATE) “inactive; negative”; (Test System: E. COLI, Strain/Indicator: WP2 UVRA (PKM101), Metabolic Activation: RAT, LIVER, S-9, PHENOBARBITAL AND 5,6-BENZOFLAVONE, Method: STANDARD PLATE) “inactive; negative”. The mutagenic call by setting is: (Test System: E.COLI, Strain/Indicator: WP2UVRA/PKM101, Metabolic Activation: NONE, Method: PREINCUBATION) “inactive; negative”; (Test System: E.COLI, Strain/Indicator: WP2UVRA/PKM101, Metabolic Activation: RAT LIVER S-9, PHENOBARBITAL AND BETA-NAPHTHOFLAVONE, Method: PREINCUBATION) “active; positive”; (Test System: E.COLI, Strain/Indicator: WP2UVRA, Metabolic Activation: NONE, Method: PREINCUBATION) “inactive; negative”; (Test System: E.COLI, Strain/Indicator: WP2UVRA, Metabolic Activation: RAT LIVER S-9, PHENOBARBITAL AND BETA-NAPHTHOFLAVONE, Method: PREINCUBATION) “inactive; negative”.
Turning to `CCCCCCCCS(=O)C(C)Cc1ccc2c(c1)OCO2` (stereo not drawn), the mutagenic call reads like this: (End Point: IN VITRO CHROMOSOMAL ABERRATIONS, Test System: CHINESE HAMSTER OVARY CELLS, Metabolic Activation: NONE) “inactive; negative”; (End Point: IN VITRO CHROMOSOMAL ABERRATIONS, Test System: CHINESE HAMSTER OVARY CELLS, Metabolic Activation: RAT, LIVER, S-9, AROCLOR 1254) “inactive; negative”.
Take `Cc1cccc(C(=O)Cl)c1`: the mutagenic call under setting [1] is “inactive; negative”; the mutagenic call (Test System: AMES SALMONELLA TYPHIMURIUM, Strain/Indicator: TA98, Metabolic Activation: RAT LIVER S-9, PCB, Method: PREINCUBATION) is “inactive; negative”; the mutagenic call under setting [2] was “inactive; negative”; the mutagenic call (Test System: AMES SALMONELLA TYPHIMURIUM, Strain/Indicator: TA100, Metabolic Activation: RAT LIVER S-9, PCB, Method: PREINCUBATION) is “active; positive”; the mutagenic call under setting [3] was “active; positive”; the mutagenic call (Test System: AMES SALMONELLA TYPHIMURIUM, Strain/Indicator: TA104, Metabolic Activation: RAT LIVER S-9, PCB, Method: PREINCUBATION) is “active; positive”. Moreover, the mutagenic call reads like this: (Test System: E.COLI, Strain/Indicator: WP2 UVRA, Metabolic Activation: NONE, Method: PREINCUBATION) “active; positive”; (Test System: E.COLI, Strain/Indicator: WP2 UVRA, Metabolic Activation: RAT LIVER S-9, PCB, Method: PREINCUBATION) “active; positive”.
Consider `[O-][n+]1cc2cnccc2cn1`, for which the mutagenic call by setting is: under setting [1], “active; positive”; (Test System: AMES SALMONELLA TYPHIMURIUM, Strain/Indicator: TA98, Metabolic Activation: RAT, LIVER, S-9, PCB, Method: PREINCUBATION) “active; positive”; under setting [2], “inactive; negative”; (Test System: AMES SALMONELLA TYPHIMURIUM, Strain/Indicator: TA100, Metabolic Activation: RAT, LIVER, S-9, PCB, Method: PREINCUBATION) “inactive; negative”.
